Consider four compounds from patent EP0125695B1, “2-Bromo-1-tetralone derivatives” (KIRIN BEER KABUSHIKI KAISHA, priority 1983, dated 1984).

In one data set the test system is Candida albicans. In words: Minimum inhibitory concentration on Sabouraud's agar medium (Yamano et al. method). The settings on record: 168 h, agar plate, 27°C for 7 days. It counts as cell-based. On the procedure: (§1) Sabouraud's agar medium was used as a culture medium. (A liquid culture medium was prepared from the same ingredients except for agar).
(§2) This culture medium was prepared by dissolving the above ingredients under heat, and the medium thus prepared was sterilized under the conditions of 1.05 bar (15 Ibs.lin^2) for 15 minutes.
(§3) The microorganisms to be tested were fungi of the species Trichophyton mentagrophytes (A), Trichophyton asteroides (B) and Candida a/bicans (C). Each of these microorganisms was cultivated on the corresponding slant medium at 27°C for 7 days. A loopful of each of the microorganisms (A), (B) and (C) was triturated in a mortar, charged into a test tube containing 10 ml of physiological saline solution, and suspended therein with a thermomixer. Each of the suspensions thus prepared was used in the test.
(§4) 9 ml of the culture medium and 1 ml of a dilute sample were thoroughly admixed with each other in a Petri dish to prepare an agar plate, which was then streaked with the suspension containing each of the microorganisms to be tested by using a sterile platinum wire loop. The microorganisms (A), (B) and (C) thus inoculated on the agar plates were cultivated at 27°C for 7 days, and thereafter the MIC thereof was determined.

In a further data set the test system is Trichophyton asteroides. The description is as above. It counts as cell-based. The following applies: 168 h, agar plate, 27°C for 7 days. The procedure: as §1, §2, §3, §4
The subject of data set [1] is Trichophyton mentagrophytes. The description is as above. The settings on record: 168 h, agar plate, 27°C for 7 days. It is filed as cell-based. The procedure: as §1, §2, §3, §4
A further data set relates to P388 leukemia. In words: Antitumor activity against intraperitoneally transplanted P388 leukemia in mice. It is filed as in vivo. The following applies: given 1 day and 5 days after transplantation of P388 leukemia 1 x 10^6 cells/mouse i.p., survival days of saline control group = 100. On the procedure: For example, into CDF, mice were intraperitoneally transplanted P388 leukemia 1 x 10^6 cells/mouse as a suspension, and 2-bromo-6,7-dichloro-1-tetralone which is typical of the compounds of the present invention was administered to the mice 1 day and 5 days respectively after the transplantation. The effect of the test compound was evaluated in terms of the increase of life span (%) as calculated by determining the survival days of the control group consisting of mice administered with physiological saline solution as 100.

The nature of a further data set: Toxicity (LD50) to mice. The settings on record: mouse, in vivo.

Structures are written as SMILES. Values after ≈ are worked out from the molar mass of the structure shown.

Take `O=C1c2cc(F)ccc2CCC1Br` (centres unmarked) [2-bromo-7-fluoro-1-tetralone]: the MIC against Candida albicans is 6.25 µg/mL (≈ 25.7 µM); with Trichophyton asteroides, 3.13 µg/mL (≈ 12.9 µM); in data set [1] it was 3.13 µg/mL (≈ 12.9 µM).

On to `O=C1c2cc(Cl)cc(Cl)c2CCC1Br` (centres unmarked) [2-bromo-5,7-dichloro-1-tetralone], for which the minimum inhibitory concentration (MIC) (in the data set with Candida albicans; against Trichophyton asteroides; in data set [1]) was 1.56 µg/mL (≈ 5.31 µM) each time.

Turning to `O=C1c2cc(Cl)c(Cl)cc2CCC1Br` (centres unmarked) [2-bromo-6,7-dichloro-1-tetralone], the “Survival time relative to saline control (T/C, control = 100)” value with P388 leukemia (Dose 10.0 mg/kg/day) is on record as 129%; in the data set on P388 leukemia (Dose 50.0 mg/kg/day), 140%. The MIC with Candida albicans is 1.56 µg/mL (≈ 5.31 µM); against Trichophyton asteroides it was 0.78 to 1.56 µg/mL (≈ 2.65 to 5.31 µM); in data set [1], 0.78 µg/mL (≈ 2.65 µM). Moreover, the LD50 is over 1500 mg/kg in the data set “Toxicity (LD50) to mice” (Oral); 820 mg/kg in “Toxicity (LD50) to mice” (ip, Intraperitoneal); over 1500 mg/kg in the data set “Toxicity (LD50) to mice” (sc, Subcutaneous).

For `COC1=CC(=O)C[C@@H](C)[C@]12Oc1c(Cl)c(OC)cc(OC)c1C2=O` [griseofulvin, reference compound], the results for the MIC (against Candida albicans; in the data set with Trichophyton asteroides; in data set [1]) were over 200 µg/mL, 6.25 µg/mL (≈ 17.7 µM) and 6.25 µg/mL (≈ 17.7 µM), respectively.

As a reminder, the MIC is the lowest concentration that inhibits growth of the organism. The term LD50 denotes the dose expected to kill half of the subjects tested. A higher LD50 goes with lower toxicity.
